The values that follow come from US20200016159A1, “N3-CYCLICALLY SUBSTITUTED THIENOURACILS AND USE THEREOF” (Bayer Aktiengesellschaft, priority 2016, published 2020).

The structures appear in SMILES notation.

The target in this test is T1, human adenosine A2b receptor (Homo sapiens, UniProt P29275).
T1 sequence (P29275 1-332): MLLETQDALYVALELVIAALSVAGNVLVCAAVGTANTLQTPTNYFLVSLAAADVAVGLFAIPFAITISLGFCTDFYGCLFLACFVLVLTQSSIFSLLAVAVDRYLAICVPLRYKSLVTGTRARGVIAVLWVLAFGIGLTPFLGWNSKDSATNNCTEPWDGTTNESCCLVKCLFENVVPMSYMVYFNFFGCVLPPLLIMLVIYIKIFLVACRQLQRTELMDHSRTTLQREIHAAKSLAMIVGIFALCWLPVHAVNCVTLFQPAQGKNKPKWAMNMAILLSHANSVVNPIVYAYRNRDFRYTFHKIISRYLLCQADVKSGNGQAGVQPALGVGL
In words: Cellular in vitro reporter gene test for A2b receptor activity (antagonism of NECA). Type of test: cell-based. As to conditions: recombinant CHO-K1 cells, CRE-luciferase reporter, co-incubation with EC50 concentration of NECA, 3 hours. Details: expressed in transfected cells; host or cells: CHO-K1 (Chinese hamster ovary) with CRE-luciferase reporter. In outline: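 Antagonism measured as block of NECA-induced, cAMP/CRE-dependent luciferase expression in recombinant A2b CHO-K1 cells. NECA used at the EC50 set in a pre-experiment on each test day; luminescence detected after 3 h. Reported as IC50, partly averaged and rounded to two significant figures.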
(In general: Reporter assays use an easily measured gene product as a stand-in for the process of interest.)
On to `Cc1c(Cn2nc[nH]c2=O)sc2c1c(=O)n(C1CC1)c(=O)n2CC1CCC(F)(F)C1` (single isomer, unassigned) [Example 211, 3-Cyclopropyl-1-[(3,3-difluorocyclopentyl)methyl]-5-methyl-6-[(5-oxo-4,5-dihydro-1H-1,2,4-triazol-1-yl)methyl]thieno[2,3-d]pyrimidine-2,4(1H,3H)-dione], for which the IC50 came to 1300 nM.

With `Cc1c(Cn2cc[nH]c2=O)sc2c1c(=O)n(C1CC1)c(=O)n2CC1CCCO1` (racemic) [Example 46, 3-Cyclopropyl-5-methyl-6-[(2-oxo-2,3-dihydro-H-imidazol-1-yl)methyl]-1-(tetrahydrofuran-2-ylmethyl)thieno[2,3-d]pyrimidine-2,4(1H,3H)-dione], the IC50 is 39 nM.

As to `COC(=O)N=C1NCCN1Cc1sc2c(c1C)c(=O)n(C1(C)CCC1)c(=O)n2CCC(F)(F)F` [Example 136, Methyl [1-{[5-methyl-3-(1-methylcyclobutyl)-2,4-dioxo-1-(3,3,3-trifluoropropyl)-1,2,3,4-tetrahydrothieno[2,3-d]pyrimidin-6-yl]methyl}imidazolidin-2-ylidene]carbamate], the IC50 was 19 nM.

As to `COCCn1c(=O)n(C2(C)CC2)c(=O)c2c(C)c(Cn3cc[nH]c3=O)sc21` [Example 217, 1-(2-Methoxyethyl)-5-methyl-3-(1-methylcyclopropyl)-6-[(2-oxo-2,3-dihydro-1H-imidazol-1-yl)methyl]thieno[2,3-d]pyrimidine-2,4(1H,3H)-dione], the IC50 came to 38 nM.

Regarding `CCn1c(=O)n([C@H]2C[C@@H]2C)c(=O)c2c(C)c(Cn3nc[nH]c3=O)sc21` [Example 316, 1-Ethyl-5-methyl-3-[(1S,2S)-2-methylcyclopropyl]-6-[(5-oxo-4,5-dihydro-1H-1,2,4-triazol-1-yl)methyl]thieno[2,3-d]pyrimidine-2,4(1H,3H)-dione], the IC50 is 25 nM.

In the case of `COCCn1c(=O)n(C2(C)CCC2)c(=O)c2c(C)c(CN3CCNC(=O)C3=O)sc21` [Example 142, 6-[(2,3-Dioxopiperazin-1-yl)methyl]-1-(2-methoxyethyl)-5-methyl-3-(1-methylcyclobutyl)thieno[2,3-d]pyrimidine-2,4(1H,3H)-dione], the IC50 turned out to be 460 nM.

As for `COCCn1c(=O)n(C2CC3(CCC3)C2)c(=O)c2c(C)c(Cn3nc[nH]c3=O)sc21` [Example 183, 1-(2-Methoxyethyl)-5-methyl-6-[(5-oxo-4,5-dihydro-1H-1,2,4-triazol-1-yl)methyl]-3-(spiro[3.3]hept-2-yl)thieno[2,3-d]pyrimidine-2,4(1H,3H)-dione], the IC50 turned out to be 70 nM.

As to `Cc1c(Cn2nc[nH]c2=O)sc2c1c(=O)n(C1CC1)c(=O)n2CCSC(F)(F)F` [Example 213, 3-Cyclopropyl-5-methyl-6-[(5-oxo-4,5-dihydro-1H-1,2,4-triazol-1-yl)methyl]-1-{2-[(trifluoromethyl)sulfanyl]ethyl}thieno[2,3-d]pyrimidine-2,4(1H,3H)-dione], the IC50 came out at 40 nM.

Turning to `Cc1c(CN2CCNC(=O)C2=O)sc2c1c(=O)n(C1CCC1)c(=O)n2CCC(F)(F)F` [Example 113, 3-Cyclobutyl-6-[(2,3-dioxopiperazin-1-yl)methyl]-5-methyl-1-(3,3,3-trifluoropropyl)thieno[2,3-d]pyrimidine-2,4(1H,3H)-dione], the IC50 was determined as 2 nM.

Turning to `Cc1c(CN2CCNC2=S)sc2c1c(=O)n(C1CC1)c(=O)n2CC1CCCO1` (racemic) [Example 40, 3-Cyclopropyl-5-methyl-1-(tetrahydrofuran-2-ylmethyl)-6-[(2-thioxoimidazolidin-1-yl)methyl]thieno[2,3-d]pyrimidine-2,4(1H,3H)-dione], the IC50 was determined as 15 nM.

Take `Cc1c(CN2CCNC(=O)C2=O)sc2c1c(=O)n(C1CC(C)(C)C1)c(=O)n2CCC(F)(F)F` [Example 167, 3-(3,3-Dimethylcyclobutyl)-6-[(2,3-dioxopiperazin-1-yl)methyl]-5-methyl-1-(3,3,3-trifluoropropyl)thieno[2,3-d]pyrimidine-2,4(1H,3H)-dione]: the IC50 is 5.3 nM.

As to `Cc1c(CN2CCNC2=O)sc2c1c(=O)n(C1(C)CC1)c(=O)n2CC1CCC1` [Example 61, 1-(Cyclobutylmethyl)-5-methyl-3-(1-methylcyclopropyl)-6-[(2-oxoimidazolidin-1-yl)methyl]thieno[2,3-d]pyrimidine-2,4(1H,3H)-dione], the IC50 was 5.4 nM.

For `Cc1c(CN2CCNC2=NC#N)sc2c1c(=O)n(C1CC(C)(C)C1)c(=O)n2CCC(F)(F)F` [Example 165, [1-{[3-(3,3-Dimethylcyclobutyl)-5-methyl-2,4-dioxo-1-(3,3,3-trifluoropropyl)-1,2,3,4-tetrahydrothieno[2,3-d]pyrimidin-6-yl]methyl}imidazolidin-2-ylidene]cyanamide], the IC50 is 14 nM.

As for `Cc1c(Cn2nc[nH]c2=O)sc2c1c(=O)n(C1CCC1)c(=O)n2CCC(F)(F)F` [Example 114, 3-Cyclobutyl-5-methyl-6-[(5-oxo-4,5-dihydro-1H-1,2,4-triazol-1-yl)methyl]-1-(3,3,3-trifluoropropyl)thieno[2,3-d]pyrimidine-2,4(1H,3H)-dione], the IC50 worked out at 1.9 nM.

With `COCCn1c(=O)n(C2CC3(CCC3)C2)c(=O)c2c(C)c(CN3CCNC3=NC(=O)OC)sc21` [Example 181, Methyl [1-{[1-(2-methoxyethyl)-5-methyl-2,4-dioxo-3-(spiro[3.3]hept-2-yl)-1,2,3,4-tetrahydrothieno[2,3-d]pyrimidin-6-yl]methyl}imidazolidin-2-ylidene]carbamate], the IC50 is 6.7 nM.

In the case of `Cc1c(CN2CCNC2=O)sc2c1c(=O)n(C1CC1C)c(=O)n2CC1CCOC1` (centres unmarked) [Example 289, 5-Methyl-3-(2-methylcyclopropyl)-6-[(2-oxoimidazolidin-1-yl)methyl]-1-(tetrahydrofuran-3-ylmethyl)thieno[2,3-d]pyrimidine-2,4(1H,3H)-dione], the IC50 is 35 nM.

On to `CCCCn1c(=O)n([C@H]2C[C@@H]2C)c(=O)c2c(C)c(Cn3nc[nH]c3=O)sc21` [Example 318, 1-Butyl-5-methyl-3-[(1S,2S)-2-methylcyclopropyl]-6-[(5-oxo-4,5-dihydro-H-1,2,4-triazol-1-yl)methyl]thieno[2,3-d]pyrimidine-2,4(1H,3H)-dione], for which the IC50 worked out at 12 nM.

`Cc1c(CN2CCNC2=O)sc2c1c(=O)n(C1CCCC1)c(=O)n2CCC(F)(F)F` [Example 184, 3-Cyclopentyl-5-methyl-6-[(2-oxoimidazolidin-1-yl)methyl]-1-(3,3,3-trifluoropropyl)thieno[2,3-d]pyrimidine-2,4(1H,3H)-dione]: the IC50 was 6.9 nM.

As for `Cc1c(CN2CCNC2=O)sc2c1c(=O)n([C@H]1C[C@@H]1C)c(=O)n2CC1CCO1` (single isomer, unassigned) [Example 284], the IC50 worked out at 8.6 nM.

Consider `COCCn1c(=O)n(C2CC2OC)c(=O)c2c(C)c(Cn3nc[nH]c3=O)sc21` (single isomer, unassigned) [Example 310, 3-(2-Methoxycyclopropyl)-1-(2-methoxyethyl)-5-methyl-6-[(5-oxo-4,5-dihydro-1H-1,2,4-triazol-1-yl)methyl]thieno[2,3-d]pyrimidine-2,4(1H,3H)-dione], for which the IC50 was 3900 nM.

For `Cc1c(CN2CCNC2=O)sc2c1c(=O)n(C1CC1C)c(=O)n2CCOC(F)(F)F` (single isomer, unassigned) [Example 263, 5-Methyl-3-(2-methylcyclopropyl)-6-[(2-oxoimidazolidin-1-yl)methyl]-1-[2-(trifluoromethoxy)ethyl]thieno[2,3-d]pyrimidine-2,4(1H,3H)-dione], the IC50 came to 1.1 nM.

`[2H]C([2H])(c1sc2c(c1C)c(=O)n(C1CC1)c(=O)n2CCC(F)(F)F)N1CCNC1=O` [Example 16, 3-Cyclopropyl-5-methyl-6-[(2-oxoimidazolidin-1-yl)dideuteromethyl]-1-(3,3,3-trifluoropropyl)thieno[2,3-d]pyrimidine-2,4(1H,3H)-dione]: the IC50 came out at 3 nM.

On to `Cc1c(CN2CCNC2=NC#N)sc2c1c(=O)n(C1(C)CCC1)c(=O)n2CCC(F)(F)F` [Example 135, [1-{[5-Methyl-3-(1-methylcyclobutyl)-2,4-dioxo-1-(3,3,3-trifluoropropyl)-1,2,3,4-tetrahydrothieno[2,3-d]pyrimidin-6-yl]methyl}imidazolidin-2-ylidene]cyanamide], for which the IC50 was 48 nM.

For the molecule `COCCn1c(=O)n(C2CC2)c(=O)c2c(C)c(Cn3nc[nH]c3=O)sc21` [Example 29, 3-Cyclopropyl-1-(2-methoxyethyl)-5-methyl-6-[(5-oxo-4,5-dihydro-1H-1,2,4-triazol-1-yl)methyl]thieno[2,3-d]pyrimidine-2,4(1H,3H)-dione], the IC50 came out at 57 nM.

For `COCCn1c(=O)n(C2CCC2)c(=O)c2c(C)c(CN3CCNC3=NC(=O)OC)sc21` [Example 117, Methyl [1-{[3-cyclobutyl-1-(2-methoxyethyl)-5-methyl-2,4-dioxo-1,2,3,4-tetrahydrothieno[2,3-d]pyrimidin-6-yl]methyl}imidazolidin-2-ylidene]carbamate], the IC50 came to 1.3 nM.

Take `COCCn1c(=O)n(C2(C(F)(F)F)CC2)c(=O)c2c(C)c(CN3CCNC3=NC#N)sc21` [Example 86, [1-({1-(2-Methoxy ethyl)-5-methyl-2,4-dioxo-3-[1-(trifluoromethyl)cyclopropyl]-1,2,3,4-tetrahydrothieno[2,3-d]pyrimidin-6-yl}methyl)imidazolidin-2-ylidene]cyanamide]: the IC50 came out at 270 nM.

The term IC50 denotes the concentration needed to halve the response being measured.
